Source: patent USRE48253E1, “Methotrexate adjuvants to reduce toxicity and methods for using the same” (Tosk, Inc., priority 2008, dated 2020)

Assays:
Drosophila melanogaster = assay: Fly Study I: protection from MTX-induced lethality; format: in vivo
Description: In this study, Drosophila melanogaster eggs (50 eggs per vial) were treated with either 0.005 mg TK-112690+0.4 mg MTX (Group 1), 0.01 mg TK-112690+0.4 mg MTX (Group 2), 0.04 mg TK-112690+0.4 mg MTX (Group 3), 0.1 mg TK-112690+0.4 mg MTX (Group 4), 0.4 mg MTX alone (Group 5) or saline blank (Group 6). Two vials of eggs for each dose group were evaluated for viability (viable flies plus pupae).
The efficacy of cancer chemotherapy can be improved if agents are available to reduce the adverse events associated with treatment with cytotoxic agents. To this end, Drosophila melanogaster (commonly know as the fruit fly) is an ideal organism to screen chemical compounds for such side-effect-reducing agents. This study is aimed at finding a dose of a 2,2′-anhydropyrimidine test article that protects against MTX-induced lethality in insects.
Increasing amounts of a 2,2′-anhydropyrimidine test article (typically 0.03 to 0.1 mg) are mixed in an aqueous solution with 0.3 (or 0.4) mg MTX. Four milliliters (mL) of a 2,2′-anhydropyrimidine test article+MTX solutions are added to an appropriate amount of instant fly medium. Fruit fly eggs are added to a 2,2′-anhydropyrimidine test article+MTX treated medium and incubated for up to 31 days. After the 31 day incubation, each assay is scored by the number of mature fly and pupae per vial.
The assays are set up in clear sterile polystyrene narrow diameter vials from Applied Scientific (Hampton, N.H.). Vials are stored in trays and incubated in a darkened 25° C. incubator.
Reagents and materials used are: 50 mg/mL MTX in H2O (pH 8), 20 mg/mL of the 2,2′-anhydropyrimidine test article in H2O, water, sterile polystyrene narrow diameter vials from Applied Scientific, Instant Drosophila Food Medium, Oregon-R Drosophila melanogaster, 25° C. incubator, and 15 mL polystyrene conical tubes
Each assay is performed in a separate fly vial. […] Pre-measured amounts of instant drosophila medium are added to each assay to achieve optimal hydration level. […] Assays are scored by the number of dead pupae or adult flies per vial.

CCRF-CEM cells = assay: Cell Culture Study I: MTX cytotoxicity, alamarBlue; format: cell-based, human; conditions: 72 hours
Description: In this study, CCRF-CEM cells purchased from ATCC were cultured and then 12 tubes containing approximately 10^6 cells each treated for 72 hours with media (Group1), MTX 0.03 μM (Group2), MTX+Leucovorin 1 μM (Group3), MTX+Leucovorin 10 μM (Group4), MTX+Leucovorin 100 μM (Group5), MTX+TK-112690 1 μM (Group6), MTX+TK-112690 10 μM (Group7) and MTX+TK-112690 100 μM (Group8). […] Viability was measured as percent reduction of alamarBlue absorbance.
The tumor cell line CCR-CEM (human T-cell acute lymphoblastic leukemia) is obtained from American Type Culture Collection (CRL-1593.2) and cultured in accordance with the product information sheet with the following exceptions: 55.3 cm^2 Petri dishes are used instead of 75 cm^2 culture flasks, and 1% penicillin-streptomycin solution (HyClone SV30010) and 1% GlutaMAX™ (Gibco 35050) are added to the culture medium.
TK-112690, the representative 2,2′-anhydropyrimidine test article, is dissolved in 40% DMSO, sterile filtered then diluted with sterile distilled water to obtain initial working solutions of 10, 100 and 1000 μM. In testing, a 100 fold dilution is made in culture media to give final assay concentrations of 0.1, 1.0 and 10.0 μM. MTX (SAFC Biosciences M8407) is dissolved in sterile distilled water and 5 N NaOH then sterile filtered. The final pH of the stock solution is 7.8 and working solutions are made with sterile distilled water for final assay concentrations of 30, 3.0, 0.3, 0.03 and 0.003 μM. Leucovorin (Sigma F-7878) is dissolved in sterile distilled water, sterile filtered and diluted with sterile distilled water for final assay concentrations of 0.1, 1.0 and 10.0 μM.
Aliquots of 100 μL of cell suspension are plated in 96 well microtiter plates (Corning costar 3595) and placed in an atmosphere of 5% CO2 at 37° C. (Fisher Scientific Isotemp 3500 CO2 Incubator). After 24 hours, 100 μL of growth medium [RPMI-1640 w/L-glutamine (Cambrex 12-702Q) fortified with sodium pyruvate (HyClone SH30239.01), fetal bovine serum (SAFC Biosciences 12107C) and HEPES buffer (Gibco 15630)] and 2 μL of test solution or vehicle are added respectively per well and the plates incubated for an additional 72 hour incubation. MTX is evaluated at concentrations of 0.003, 0.03, 0.30 and 3.0 μM alone or in combination with either a 2,2′-anhydropyrimidine test article or Leucovorin at concentrations of 0.1, 1.0, 10.0 μM. At the end of incubation, the efficacy of anti-cell proliferation is determined by optical absorbance at λ=570 and 600 nm [Spectramax 250 (Molecular Devices)] in accordance with the standard alamarBlue™ (Biosource) protocol.
Group 1 is the cell control (media treated). Group 2 corresponds to cells treated with 0.03 μM MTX. Group 3 are cells treated with 1.0 μM Leucovorin. Group 4 are cells treated with 0.1 μM Leucovorin. Group 5 are cells treated with 10 μM TK-112690. Group 6 are cells treated with MTX+10 μM TK-112690. Group 7 are cells treated with MTX+1.0 μM TK-112690. Group 8 MTX+0.1 μM TK-112690.

## CN(Cc1cnc2nc(N)nc(N)c2n1)c1ccc(C(=O)N[C@@H](CCC(=O)O)C(=O)O)cc1 [MTX, N-[4-[[(2,4-diamino-6-pteridinyl)methyl]methylamino]benzoyl]-L-glutamic acid, reference compound]
Drosophila melanogaster; 0.4 mg MTX alone vs saline
  effect of MTX on lethality in the flies: highly significant
CCRF-CEM cells; MTX 0.03 μM
  viability, MTX alone vs cell control: statistically significantly different from Group1

## Cc1cn2c(nc1=O)O[C@H]1[C@H](O)[C@@H](CO)O[C@H]12 [TK-112690, 2,2′-anhydro-5-methyluridine]
Drosophila melanogaster; with MTX 0.4 mg, TK-112690 0.005 to 0.1 mg
  protection against MTX-induced lethality in the Fly model: highly significant
CCRF-CEM cells; combined with MTX 0.03 μM
  effect on MTX cytotoxicity (viability, alamarBlue): do not interfere with methotrexate cytotoxicity
CCRF-CEM cells; without MTX
  viability, agent alone vs control: not statistically different than control
